# pIC50: −log10 of the molar value. Like-named read-outs stand apart in the source and are kept apart here. Where a SMILES comes first, the peptide text is derived from it.
# Columns and labels:
# [1] = tested on: Rgp; experiment: Rgp gingipain activity, fluorescent assay with benzoyl‐R‐AMC in Pg cell suspensions; assay type: biochemical, Porphyromonas gingivalis; conditions: for pIC50: 0.2 mM benzoyl‐R‐AMC, 15 min, read-out: concentration causing 50% inhibition of Rgp activity; for effect on Rgp activity: concentrations up to 1 × 10^−4 M, results not shown
# Experimental: (§1) To obtain culture media for measuring secreted gingipain activity, we removed bacteria by centrifugation followed by filtration through 0.2‐µm filters, and we supplemented the medium with 0.2 mM PMSF to block any serine‐protease activity. To measure cell‐associated activity, we resuspended bacteria to an optical density of 4.0 at 600 nm (4 × 10^9 CFU/mL) in DPBS, and PMSF was added. Portions of the media and bacterial suspensions were frozen in liquid nitrogen and stored at −80°C.
# (§2) The gingipain assay was adapted from procedures of Chen et al. (2001) and Suwannakul et al. (2010). To measure activity of Rgp or Kgp, respectively, we incubated various volumes of media or bacterial suspensions 10 min at 37°C in DPBS with 1 mM L‐cysteine to ensure that the gingipain active‐site cysteine was in the reduced, active form, and then we added the substrate benzoyl‐R‐AMC or Boc‐VLK‐AMC to give 0.2 mM substrate in a final volume of 0.1 mL. The incubation was continued 15 min at 37°C in black multiwell plates. Incubations were stopped by adding 50 μL of 1.5 mM TLCK, an irreversible inhibitor of serine and cysteine proteases. Fluorescence was measured with a fluorescence plate reader (SpectraMax Gemini EM, Molecular Devices, Sunnyvale, CA) with excitation at 365 nm and emission at 460 nm to measure hydrolysis of the substrate and release of the fluorescent product.
# (§3) To measure effects of inhibitors on Rgp or Kgp activity, we diluted conditioned media fivefold or bacterial suspensions fiftyfold with DPBS, and we selected a diluted sample volume of 20 μL or less that gave a strong fluorescent signal, and we incubated the sample 15 min in DPBS with 0.2 mM substrate and various levels of protease inhibitors.
# [2] = target: Kgp (Porphyromonas gingivalis, UniProt B2RLK2); experiment: Kgp gingipain activity, fluorescent assay with Boc‐VLK‐AMC in Pg cell suspensions; assay type: biochemical
# Experimental: as §1, §2, §3
# [3] = tested on: Pg; experiment: Bactericidal activity, LIVE/DEAD BacLight viability assay; assay type: cell-based, Porphyromonas gingivalis; conditions: 1 h; for bactericidal activity: both Pg strains, concentrations up to 1 × 10^−4 M
# Experimental: Pg bacteria were collected by centrifugation and diluted to 2 × 10^8 CFU/mL in isotonic saline at 25°C. Pg (10^8 CFU/mL) were then incubated with various concentrations of protease inhibitors at 37°C with gentle mixing in 0.1 mL incubation mixtures in black multiwell plates inside AnaeroGen™ Compact pouches (Oxoid Corporation, Nepean, ON, Canada) to lower the oxygen (O2) concentration. After 1 h, the number of live bacteria per milliliter was measured with a LIVE/DEAD BacLight™ Bacterial Viability kit (Invitrogen, Inc., Carlsbad, CA). The assay determines the number of live bacteria based on entry of the fluorescent dyes SYTO 9 and propidium iodide into the bacteria. SYTO 9 enters both live and dead bacteria and binds to DNA, giving a green fluorescence. Propidium iodide enters only dead bacteria and binds to DNA, giving a red fluorescence. A 0.1 mL portion of 2× BacLight dye mixture was added to the bacteria in the wells, and the plate was incubated 15 min at 37°C in an AnaeroGen™ pouch in the dark. Immediately following removal of the plate from the pouch, fluorescence was measured in a fluorescence plate reader with excitation at 485 nm. Green fluorescence of SYTO 9 was measured at 538 nm, and red fluorescence of propidium iodide was measured at 612 nm. Standard curves were prepared with various ratios of live and dead bacteria, and the number of live bacteria was determined from the ratio of green to red fluorescence. Control experiments were performed in which Pg viability was measured by diluting, plating on blood agar plates, and counting colonies after 1 to 2 weeks at 37°C under anaerobic conditions to confirm that the plating and fluorescent assays provided similar results. Toxicity of the protease inhibitors to E. coli was also measured. Assay conditions were the same as for Pg except that incubations were in air.
# [4] = Water solubility; assay type: physicochemical; conditions: stated in discussion
# [5] = tested on: cultured human cells; parameters: method as in Kadowaki et al., 2004; Kataoka et al., 2014; conditions: ref Kadowaki et al., 2004; Kataoka et al., 2014; cited from earlier work
# [6] = tested on: E. coli; experiment: Bactericidal activity, LIVE/DEAD BacLight viability assay; assay type: cell-based, Escherichia coli; conditions: 1 h
# Experimental: Escherichia coli strain 43827 was purchased from the American Type Culture Collection and grown in TSB overnight with shaking in air at 37°C. Suspensions were serially diluted in saline and plated on TSB agar to determine CFU per milliliter.
# Pg bacteria were collected by centrifugation and diluted to 2 × 10^8 CFU/mL in isotonic saline at 25°C. Pg (10^8 CFU/mL) were then incubated with various concentrations of protease inhibitors at 37°C with gentle mixing in 0.1 mL incubation mixtures in black multiwell plates inside AnaeroGen™ Compact pouches (Oxoid Corporation, Nepean, ON, Canada) to lower the oxygen (O2) concentration. After 1 h, the number of live bacteria per milliliter was measured with a LIVE/DEAD BacLight™ Bacterial Viability kit (Invitrogen, Inc., Carlsbad, CA). […] SYTO 9 enters both live and dead bacteria and binds to DNA, giving a green fluorescence. Propidium iodide enters only dead bacteria and binds to DNA, giving a red fluorescence. […] Immediately following removal of the plate from the pouch, fluorescence was measured in a fluorescence plate reader with excitation at 485 nm. Green fluorescence of SYTO 9 was measured at 538 nm, and red fluorescence of propidium iodide was measured at 612 nm. Standard curves were prepared with various ratios of live and dead bacteria, and the number of live bacteria was determined from the ratio of green to red fluorescence. […]
# [7] = tested on: cathepsin B; parameters: method as in McConnell et al., 1993; conditions: ref McConnell et al., 1993; cited from earlier work
compound,measurement,setting,value
"CC(C)C[C@H](NC(=O)[C@H]1O[C@@H]1C(=O)O)C(=O)NCCCCN=C(N)N (relative stereo) [E64, trans‐epoxysuccinyl‐L‐leucylamido‐(4‐guanidino)butane]",concentration causing 90% inhibition of Rgp activity,[1]; Pg 33277 cell suspensions,1 mM
same,pIC50,[1]; Pg 33277 cell suspensions,4.30
same,effect on Kgp activity,"[2]; any concentration tested, Pg 33277 cell suspensions",no effect
"CN(C)C(=O)[C@H](CCCCN)NC(=O)C(=O)[C@H](CCCNC(=N)N)NC(=O)[C@H](CCCCN)NC(=O)OCc1ccccc1 [KYT‐1, carbobenzoxy‐Lys‐Arg‐CO‐Lys‐N(CH3)2]",bactericidal activity,[3],not bactericidal
same,water solubility,[4],water soluble
same,pIC50,[1]; Pg 33277 cell suspensions,8.70
same,difference in concentrations causing 50% inhibition of Rgp and Kgp,"[1]; Rgp versus Kgp, cell suspensions","10,000 fold"
same,pIC50,[2],4.70
same,toxicity to cultured human cells,[5],non‐toxic
"CN(NC(=O)CC[C@H](NC(=O)OCc1ccccc1)C(=O)N[C@@H](CCCCN)C(=O)C(=O)NCc1ccccc1)c1ccccc1 [KYT‐36, carbobenzoxy‐Glu(NHN(CH3)Ph)‐Lys‐CO‐NHCH2Ph]",bactericidal activity,[3],not bactericidal
same,water solubility,[4],water soluble
same,effect on Rgp activity,[1],did not inhibit Rgp
same,pIC50,[2],9.00
same,toxicity to cultured human cells,[5],non‐toxic
"NC(N)=NCCC[C@H](NC(=O)[C@@H]1CCCN1C(=O)[C@H](N)Cc1ccccc1)C(=O)CCl [PPACK, D‐Phe‐Pro‐Arg‐chloromethylketone]",pIC50,[1]; Pg 33277 cell suspensions,8.70
same,pIC50,"[2]; Pg 33277 cell suspensions, 0.2 mM Boc‐VLK‐AMC, 15 min, read-out: concentration causing 50% inhibition of Kgp activity",7.70
"Cc1cc(C)c(C(=O)OCC(=O)[C@H](CCCCN)NC(=O)[C@H](Cc2ccccc2)NC(=O)OCc2ccccc2)c(C)c1 [Z‐FK‐ck, Z‐Phe‐Lys‐2,4,6‐trimethylbenzoyloxy‐methylketone]",concentration causing 50% loss of viability,"[3]; Pg 10^8 CFU/mL, 37°C, low oxygen",30 µM
same,bactericidal activity,[3],significant bactericidal activity
same,pIC50,[1]; Pg 33277 cell suspensions,5.70
same,concentration causing 50% loss of viability,"[6]; 37°C, in air",30 µM
same,bactericidal activity,[6]; concentrations up to 1 × 10^−4 M,significant bactericidal activity
same,pIC50,[2],9.30
"CC(=O)N[C@@H](CC(C)C)C(=O)N[C@H](C(=O)N[C@H](C=O)CCCCN)C(C)C [cathepsin B inhibitor II, Ac‐Leu‐Val‐Lys‐aldehyde] (Ac-Leu-Val-Lys-aldehyde)",effect on Rgp activity,[1],no effect
same,pIC50,[2],7.30
same,effectiveness as inhibitor of cathepsin B relative to leupeptin,[7],~100 times
"CC(=O)N[C@@H](CC(C)C)C(=O)N[C@@H](CC(C)C)C(=O)N[C@H](C=O)CCCNC(=N)N [leupeptin, Ac‐Leu‐Leu‐Arg‐aldehyde]",pIC50,[1]; Pg 33277 cell suspensions,7.70
same,effect on Kgp activity,"[2]; concentrations up to 1 × 10^−4 M, results not shown",no effect

# From paper PMC5839262, “Inhibitors of bacterial protease enzymes for periodontal therapy” (Clinical and Experimental Dental Research, 2015)
